Results taken from patent publication US20120058989A1, “ANTIBACTERIAL FLUOROQUINOLONE ANALOGS” (Achaogen, Inc., priority 2008, published 2012).

Tests used:
Test in all cases: MIC, CLSI broth microdilution
Format in all cases: cell-based
[1] = tested on: A. baumannii AABA1009 (Fluoroquinolone-resistant); details: Table 2
Procedure: (§1) Minimum inhibitory concentrations (MIC) were determined by reference Clinical and Laboratory Standards Institute (CLSI) broth microdilution methods per M7-A7 [2006]. Quality control ranges utilizing E. coli ATCC 25922, P. aeruginosa ATCC 27853 and S. aureus ATCC 29213, and interpretive criteria for comparator agents were as published in CLSI M100-S17 [2007]. Briefly, serial two-fold dilutions of the test compounds were prepared at 2× concentration in Mueller Hinton Broth. The compound dilutions were mixed in 96-well assay plates in a 1:1 ratio with bacterial inoculum. The inoculum was prepared by suspension of a colony from an agar plate that was prepared the previous day. Bacteria were suspended in sterile saline and added to each assay plate to obtain a final concentration of 5×10^5 CFU/mL. The plates were incubated at 35° C. for 20 hours in ambient air.

[2] = tested on: A. baumannii AABA1065 (Fluoroquinolone-susceptible); details: Table 2
Procedure: as §1

[3] = tested on: E. coli AECO001 (Fluoroquinolone susceptible, ATCC25922); details: Table 2, 35° C., 20 hours
Procedure: as §1

[4] = tested on: E. coli AECO066 (Fluoroquinolone-resistant); details: Table 2
Procedure: as §1

[5] = tested on: P. aeruginosa APAE001 (Fluoroquinolone-susceptible, ATCC27853); details: Table 2
Procedure: as §1

[6] = tested on: P. aeruginosa APAE054 (Fluoroquinolone-resistant); details: Table 2
Procedure: as §1

[7] = tested on: S. aureus ASAU001 (Fluoroquinolone-susceptible, ATCC29213); details: Table 2
Procedure: as §1

[8] = tested on: S. aureus ASAU1031 (Fluoroquinolone-resistant); details: Table 2
Procedure: as §1

[9] = tested on: S. pneumoniae ASPN001 (Fluoroquinolone-susceptible, ATCC49619); details: Table 2
Procedure: as §1

[10] = tested on: S. pneumoniae ASPN1027 (Fluoroquinolone-resistant); details: Table 2
Procedure: as §1

Compound | MIC AABA 1009 [1] | MIC AABA 1065 [2] | MIC AECO 001 [3] | MIC AECO 066 [4] | MIC APAE 001 [5] | MIC APAE 054 [6] | MIC ASAU 001 [7] | MIC ASAU 1031 [8] | MIC ASPN 001 [9] | MIC ASPN 1027 [10]
O=C(O)c1cn(C2CC2)c2c3c(c(F)cc2c1=O)N1C[C@H](O)C[C@H]1CC=C3 [18/6, (7aR,9R)-4-Cyclopropyl-12-fluoro-9-hydroxy-1-oxo-4,7,7a,8,9,10-hexahydro-1H-pyrrolo[1′,2′:1,7]azepino-[2,3-h]quinoline-2-carboxylic acid] | C (MIC's of greater than 8.0 μg/mL = C) | B (MIC's of greater than 1.0 μg/mL to 8.0 μg/mL = B) | A (MIC's of 1.0 μg/mL or less = A) | C (MIC's of greater than 8.0 μg/mL = C) | C (MIC's of greater than 8.0 μg/mL = C) | C (MIC's of greater than 8.0 μg/mL = C) | A (MIC's of 1.0 μg/mL or less = A) | B (MIC's of greater than 1.0 μg/mL to 8.0 μg/mL = B) | A (MIC's of 1.0 μg/mL or less = A) | C (MIC's of greater than 8.0 μg/mL = C)
O=C(O)c1cn(C2CC2)c2c3c(c(F)cc2c1=O)N1C[C@H](O)C[C@H]1CCC3 [18/8, (7aR,9R)-4-Cyclopropyl-12-fluoro-9-hydroxy-1-oxo-4,5,6,7,7a,8,9,10-octahydro-1H-pyrrolo-[1′,2′:1,7]aze-pino[2,3-h]quinoline-2-carboxylic acid] | C (MIC's of greater than 8.0 μg/mL = C) | B (MIC's of greater than 1.0 μg/mL to 8.0 μg/mL = B) | A (MIC's of 1.0 μg/mL or less = A) | C (MIC's of greater than 8.0 μg/mL = C) | C (MIC's of greater than 8.0 μg/mL = C) | C (MIC's of greater than 8.0 μg/mL = C) | A (MIC's of 1.0 μg/mL or less = A) | B (MIC's of greater than 1.0 μg/mL to 8.0 μg/mL = B) | A (MIC's of 1.0 μg/mL or less = A) | C (MIC's of greater than 8.0 μg/mL = C)
O=C1C[C@H]2CC=Cc3c(c(F)cc4c(=O)c(C(=O)O)cn(C5CC5)c34)N2C1 [18/10, (7aR)-4-Cyclopropyl-12-fluoro-1,9-dioxo-4,7,7a,8,9,10-hexahydro-1H-pyrrolo[1′,2′:1,7]azepino[2,3-h]quino-line-2-carboxylic acid] | C (MIC's of greater than 8.0 μg/mL = C) | C (MIC's of greater than 8.0 μg/mL = C) | B (MIC's of greater than 1.0 μg/mL to 8.0 μg/mL = B) | C (MIC's of greater than 8.0 μg/mL = C) | C (MIC's of greater than 8.0 μg/mL = C) | C (MIC's of greater than 8.0 μg/mL = C) | A (MIC's of 1.0 μg/mL or less = A) | C (MIC's of greater than 8.0 μg/mL = C) | B (MIC's of greater than 1.0 μg/mL to 8.0 μg/mL = B) | C (MIC's of greater than 8.0 μg/mL = C)
O=C(O)c1cn(C2CC2)c2c3c(c(F)cc2c1=O)N1CC(=NO)C[C@H]1CC=C3 [18/11, (7aR,9E)-4-Cyclopropyl-12-fluoro-9-(hydroxyimino)-1-oxo-4,7,7a,8,9,10-hexahydro-1H-pyrrolo[1′,2′:1,7]aze-pino[2,3-h]quinoline-2-carboxylic acid] | C (MIC's of greater than 8.0 μg/mL = C) | A (MIC's of 1.0 μg/mL or less = A) | A (MIC's of 1.0 μg/mL or less = A) | C (MIC's of greater than 8.0 μg/mL = C) | B (MIC's of greater than 1.0 μg/mL to 8.0 μg/mL = B) | C (MIC's of greater than 8.0 μg/mL = C) | A (MIC's of 1.0 μg/mL or less = A) | A (MIC's of 1.0 μg/mL or less = A) | A (MIC's of 1.0 μg/mL or less = A) | A (MIC's of 1.0 μg/mL or less = A)
O=C(O)c1cn(C2CC2)c2c3c(c(F)cc2c1=O)N1CC[C@H](O)[C@H]1CC=C3 [19/5, (7aR,8S)-4-Cyclopropyl-12-fluoro-8-hydroxy-1-oxo-4,7,7a,8,9,10-hexahydro-1H-pyrrolo[1′,2′:1,7]azepino[2,3-h]quinoline-2-carboxylic acid] | C (MIC's of greater than 8.0 μg/mL = C) | B (MIC's of greater than 1.0 μg/mL to 8.0 μg/mL = B) | B (MIC's of greater than 1.0 μg/mL to 8.0 μg/mL = B) | C (MIC's of greater than 8.0 μg/mL = C) | C (MIC's of greater than 8.0 μg/mL = C) | C (MIC's of greater than 8.0 μg/mL = C) | A (MIC's of 1.0 μg/mL or less = A) | C (MIC's of greater than 8.0 μg/mL = C) | B (MIC's of greater than 1.0 μg/mL to 8.0 μg/mL = B) | C (MIC's of greater than 8.0 μg/mL = C)
NC[C@H]1C[C@@H]2CC=Cc3c(c(F)cc4c(=O)c(C(=O)O)cn(C5CC5)c34)N2C1.O=C(O)C(F)(F)F [20/14, (7aS,9R)-9-(Aminomethyl)-4-cyclopropyl-12-fluoro-1-oxo-4,7,7a,8,9,10-hexahydro-1H-pyrrolo[1′,2′:1,7]azepino[2,3-h]quinoline-2-carboxylic acid trifluoroacetate] | C (MIC's of greater than 8.0 μg/mL = C) | A (MIC's of 1.0 μg/mL or less = A) | A (MIC's of 1.0 μg/mL or less = A) | C (MIC's of greater than 8.0 μg/mL = C) | B (MIC's of greater than 1.0 μg/mL to 8.0 μg/mL = B) | C (MIC's of greater than 8.0 μg/mL = C) | A (MIC's of 1.0 μg/mL or less = A) | C (MIC's of greater than 8.0 μg/mL = C) | A (MIC's of 1.0 μg/mL or less = A) | C (MIC's of greater than 8.0 μg/mL = C)
NC[C@H]1C[C@@H]2CCCc3c(c(F)cc4c(=O)c(C(=O)O)cn(C5CC5)c34)N2C1.O=C(O)C(F)(F)F [20/16, (7aS,9R)-9-(Aminomethyl)-4-cyclopropyl-12-fluoro-1-oxo-4,5,6,7,7a,8,9,10-octahydro-1H-pyrrolo[1′,2′:1,7]-azepino[2,3-h]quinoline-2-carboxylic acid trifluoroacetate] | C (MIC's of greater than 8.0 μg/mL = C) | A (MIC's of 1.0 μg/mL or less = A) | A (MIC's of 1.0 μg/mL or less = A) | C (MIC's of greater than 8.0 μg/mL = C) | B (MIC's of greater than 1.0 μg/mL to 8.0 μg/mL = B) | C (MIC's of greater than 8.0 μg/mL = C) | A (MIC's of 1.0 μg/mL or less = A) | C (MIC's of greater than 8.0 μg/mL = C) | A (MIC's of 1.0 μg/mL or less = A) | C (MIC's of greater than 8.0 μg/mL = C)
O=C(O)c1cn(C2CC2)c2c3c(c(F)cc2c1=O)N1C(=O)CC[C@H]1COC3 [21/9, (3aS)-13-Cyclopropyl-8-fluoro-6,10-dioxo-3a,4,5,6,10,13-hexahydro-1H,3H-pyrrolo[2′,1′:3,4]oxazepino-[5,6-h]quinoline-11-carboxylic acid] | C (MIC's of greater than 8.0 μg/mL = C) | C (MIC's of greater than 8.0 μg/mL = C) | B (MIC's of greater than 1.0 μg/mL to 8.0 μg/mL = B) | C (MIC's of greater than 8.0 μg/mL = C) | C (MIC's of greater than 8.0 μg/mL = C) | C (MIC's of greater than 8.0 μg/mL = C) | B (MIC's of greater than 1.0 μg/mL to 8.0 μg/mL = B) | C (MIC's of greater than 8.0 μg/mL = C) | C (MIC's of greater than 8.0 μg/mL = C) | C (MIC's of greater than 8.0 μg/mL = C)
NC[C@@H]1CC2CC=Cc3c(c(F)cc4c(=O)c(C(=O)O)cn(C5CC5)c34)N2C1.O=C(O)C(F)(F)F (stereo partly drawn) [22/17, (9S)-9-(Aminomethyl)-4-cyclopropyl-12-fluoro-1-oxo-4,7,7a,8,9,10-hexahydro-1H-pyrrolo-[1′,2′:1,7]azepino[2,3-h]quinoline-2-carboxylic acid trifluoroacetate] | C (MIC's of greater than 8.0 μg/mL = C) | B (MIC's of greater than 1.0 μg/mL to 8.0 μg/mL = B) | B (MIC's of greater than 1.0 μg/mL to 8.0 μg/mL = B) | C (MIC's of greater than 8.0 μg/mL = C) | B (MIC's of greater than 1.0 μg/mL to 8.0 μg/mL = B) | C (MIC's of greater than 8.0 μg/mL = C) | A (MIC's of 1.0 μg/mL or less = A) | C (MIC's of greater than 8.0 μg/mL = C) | B (MIC's of greater than 1.0 μg/mL to 8.0 μg/mL = B) | C (MIC's of greater than 8.0 μg/mL = C)
